For assay [1], the target named is T1, Calpain-1 catalytic subunit (Homo sapiens) (UniProt P07384).
T1 sequence (whole entry): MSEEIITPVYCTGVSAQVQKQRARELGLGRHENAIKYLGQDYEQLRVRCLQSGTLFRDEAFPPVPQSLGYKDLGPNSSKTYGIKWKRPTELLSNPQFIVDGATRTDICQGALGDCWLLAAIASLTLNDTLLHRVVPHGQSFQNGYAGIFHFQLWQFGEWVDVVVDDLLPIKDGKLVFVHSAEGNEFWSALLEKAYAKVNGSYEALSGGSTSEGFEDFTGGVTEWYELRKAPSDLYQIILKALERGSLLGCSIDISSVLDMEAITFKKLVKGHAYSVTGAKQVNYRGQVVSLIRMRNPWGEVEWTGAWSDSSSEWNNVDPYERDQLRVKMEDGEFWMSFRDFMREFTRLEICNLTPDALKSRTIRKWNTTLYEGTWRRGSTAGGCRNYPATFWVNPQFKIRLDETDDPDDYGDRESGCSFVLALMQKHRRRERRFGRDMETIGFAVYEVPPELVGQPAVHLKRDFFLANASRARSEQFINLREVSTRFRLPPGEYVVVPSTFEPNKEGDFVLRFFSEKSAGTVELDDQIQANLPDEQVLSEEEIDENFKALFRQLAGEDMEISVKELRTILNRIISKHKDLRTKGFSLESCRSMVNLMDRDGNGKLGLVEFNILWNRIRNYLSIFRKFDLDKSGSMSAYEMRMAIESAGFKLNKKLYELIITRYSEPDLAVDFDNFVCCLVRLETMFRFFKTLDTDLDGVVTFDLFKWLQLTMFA
The assay is described as follows: Inhibition of calpain 1 protease core assessed as attenuation of substrate cleavage at 50 uM by FRET.

Assay [2] addresses T2, Calpain-2 catalytic subunit (Homo sapiens) (UniProt P17655).
T2 sequence (whole entry): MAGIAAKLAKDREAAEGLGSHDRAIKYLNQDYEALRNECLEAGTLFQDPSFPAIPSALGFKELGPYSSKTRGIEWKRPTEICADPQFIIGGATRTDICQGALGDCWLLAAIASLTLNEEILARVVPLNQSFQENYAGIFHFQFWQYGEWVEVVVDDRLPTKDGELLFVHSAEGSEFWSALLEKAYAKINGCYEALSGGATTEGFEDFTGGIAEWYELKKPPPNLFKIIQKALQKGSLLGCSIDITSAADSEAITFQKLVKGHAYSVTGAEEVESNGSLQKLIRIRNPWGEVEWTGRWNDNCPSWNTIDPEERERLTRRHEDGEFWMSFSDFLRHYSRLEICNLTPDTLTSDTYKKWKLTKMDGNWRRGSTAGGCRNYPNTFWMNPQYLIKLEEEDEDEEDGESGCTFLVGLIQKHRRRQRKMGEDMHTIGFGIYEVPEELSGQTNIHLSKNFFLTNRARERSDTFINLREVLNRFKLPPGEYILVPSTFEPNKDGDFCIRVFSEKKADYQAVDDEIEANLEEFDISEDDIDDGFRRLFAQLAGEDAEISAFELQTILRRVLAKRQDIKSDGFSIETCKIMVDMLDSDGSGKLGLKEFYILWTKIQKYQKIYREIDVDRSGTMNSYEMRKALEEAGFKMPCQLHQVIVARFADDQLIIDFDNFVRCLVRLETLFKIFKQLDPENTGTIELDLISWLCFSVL
Briefly: Inhibition of m-calpain assessed as attenuation of substrate cleavage at 1 uM by FRET.

Activity calls are given as the source filed them. No cut-off for these calls is given here.

`CC[C@H](NC(=O)[C@H](CC(C)C)NC(=O)OCc1ccccc1)C(=O)C(=O)NCCCN1CCN(C)CC1`: the result in assay [1] and in assay [2] was Active.

Turning to `CC[C@H](NC(=O)[C@H](CC(C)C)NC(=O)OCc1ccccc1)C(=O)C(=O)NCCCn1cnc2c(N)ncnc21`, the result in assay [1] and in assay [2] was Active.

Values taken from ChEMBL document CHEMBL1139428, “Cocrystal structures of primed side-extending alpha-ketoamide inhibitors reveal novel calpain-inhibitor aromatic interactions” (J Med Chem, 2008).
